# From patent EP4692088A1, “COMPOUND ACTING AS WRN HELICASE INHIBITOR” (SHANGHAI JEYOU PHARMACEUTICAL CO., LTD., priority 2023, dated 2024)
# Test system: HCT116 cells
# Assay: Cell proliferation assay (CellTiter-Glo), HCT116
# Type: cell-based
# Conditions: Homo sapiens, 120 h, HCT-116, 5 days incubation
# Description: SW48 cells were plated at a density of 1,500 cells/well, and LoVo, HCT116, and SW620 cells were plated at a density of 800 cells/well in a 96-well cell culture plate, and cultured in a 37°C incubator overnight. The test compounds, which were gradient-diluted with DMSO, were added, and after incubation for 5 days, cell viability was detected using a CellTiter-Glo kit. The CellTiter-Glo reagent was equilibrated to room temperature, and an appropriate amount was added to the cell plate, followed by shaking at room temperature for 12 min. The luminescence signal was detected using a microplate reader.
# The luminescence signal values of the DMSO-treated wells and cell-free wells were used as negative and positive controls, respectively, to calculate the inhibition rate of compound on cell proliferation. The concentration-inhibition curve was fitted using the "log(inhibitor) vs. normalized response -- Variable slope" equation in GraphPad Prism 8 software to obtain the IC50. [formula]
compound,measurement,value
CCc1c(N2CCN(C(=O)c3ncnc(C)c3O)CC2)c(=O)c2nn(C3=CCOCC3)nc2n1CC(=O)Nc1ccc(C(F)(F)F)cc1Cl [Example 4],IC50,48 nM
